From US7700584B2 (Hangzhou Minsheng Pharmaceuticals Co., Ltd., priority 2004, dated 2010)
In brackets after ≈: the same amount, converted by molar mass. Like-named read-outs stand apart in the source and are kept apart here.

Legend:
[1] = tested on: A-549 human lung adenocarcinoma; test: In vitro inhibition rate to tumor cells (MTT), A-549; format: cell-based; details: for inhibition at 50 µg/mL: Homo sapiens
293 cells = test: Cell status of 293 cells treated with sample alone (herpes virus screening); details: 200 μg/ml, 24 hrs
[2] = tested on: SMMC-7721 human hepatic carcinoma; test: In vitro inhibition rate to tumor cells (MTT), SMMC-7721; format: cell-based; details: Homo sapiens
[3] = target: T1, HIV-1 proteinase (HIV-1 PR) (Human immunodeficiency virus type 1 group M subtype B, UniProt P04585); test: Screening for in vitro activity against HIV-1 proteinase; format: biochemical; details: for inhibition at 10 µg/mL: 10 μg/ml
T1 construct: HIV-1 proteinase digests the fluorescent-labeled substrate; purchased
In short: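 Recombinant HIV-1 PR cleaves a fluorescent-labeled substrate in reaction buffer. Samples were dissolved in DMSO and serially diluted 5-fold in water (five dilutions), then added before the enzyme. Fluorescence of the product was read after incubation; indinavir was the positive control.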

[4] = target: T2, HIV-1 reverse transcriptase (Human immunodeficiency virus type 1 group M subtype B, UniProt P04585); test: Screening for the in vitro activity against the HIV-1 reverse transcriptase; format: biochemical
T2 construct: purchased
Description: Principle of the test: The template to which the HIV-1 reverse transcriptase interacts was covered onto the enzyme-lined template. In the optimal reaction conditions and system, HIV-1 RT will put the substrate comprising Biotin-dUTP onto the reaction template. The activity of the enzyme was measured as the amount of the integrating Biotin-dUTP in the reaction by using streptavidin-labeled horseradish peroxidase. Adding the sample to the reaction system can identify inhibitor of the enzyme.
1. HIV-1 RT: commercially available.
2. Treatment of the samples: Before use, the sample was dissolved in DMSO at a suitable concentration, then serially diluted (5×) with double distilled water, five serial dilutions per sample.
4. Methods: The diluted sample was added into the reaction buffer containing Biotin-dUTP and the genetic engineered target enzyme, and incubated in the optimal reaction conditions. A streptavidin-labeled horseradish peroxidase was added to visual the system, and OD450 was measured.

[5] = tested on: Bel-7402 human hepatic carcinoma; test: In vitro inhibition rate to tumor cells (MTT), Bel-7402; format: cell-based; details: for inhibition at 50 µg/mL: Homo sapiens
[6] = tested on: HL-60 human promyelocytic leukemia; test: In vitro inhibition rate to tumor cells (MTT), HL-60; format: cell-based; details: for inhibition at 50 µg/mL: Homo sapiens
[7] = tested on: U-937 human histocytic lymphoma; test: In vitro inhibition rate to tumor cells (MTT), U-937; format: cell-based; details: for inhibition at 50 µg/mL: Homo sapiens
[8] = tested on: LLC mouse Lewis lung carcinoma; test: In vitro inhibition rate to tumor cells (MTT), LLC; format: cell-based; details: 50 μg/ml; for inhibition at 50 µg/mL: Mus musculus, Lewis lung carcinoma
[9] = tested on: Hela human cervical carcinoma; test: In vitro inhibition rate to tumor cells (MTT), Hela; format: cell-based; details: for inhibition at 50 µg/mL: Homo sapiens, HeLa
[10] = tested on: HL-60 human promyelocytic leukemia; test: In vitro anti-tumor IC50 (MTT), HL-60; format: cell-based; details: Homo sapiens, HL-60; Table 4; read-out: IC50 (ug/ml) against tumor cell lines, HL-60
Description: (§1) (1) Single cell suspension was seeded into 96-well plates (the cells was diluted in the PRMI-1640 minimum medium to 3×10^4 cells/ml, […] diluted cells/well). […] The experiments were performed in quadruplicate.
(§2) (2) The medium was removed. Solutions of the anti-tumor agents (50 compounds) were prepared in a freshly prepared medium at serial concentrations. […] of the solution was added into each well. Incubation was continued for 48 hours.
(§3) (3) 20 ug of 2 mg/ml MTT was added into each well, and incubated for 4 hours.
(§4) (4) The medium was removed from the well. The microplates were swiftly turned down to throw-off the medium. […] of DMSO was added into each well, and vortexed at room temperature for 10 minutes.
(§5) (5) OD value (λ=570 nm) was measured with an Enzyme-Linked Detector.
(§6) (6) The graph of cell vitality was plotted, and IC50 was calculated.

[11] = tested on: Hela human cervical carcinoma; test: In vitro anti-tumor IC50 (MTT), Hela; format: cell-based; details: Homo sapiens, HeLa; Table 4; read-out: IC50 (ug/ml) against tumor cell lines, Hela
[12] = tested on: MCF-7 human mammary adenocarcinoma; test: In vitro anti-tumor IC50 (MTT), MCF-7; format: cell-based; details: Homo sapiens, MCF7; Table 4; read-out: IC50 (ug/ml) against tumor cell lines, MCF
Description: as §1, §2, §3, §4, §5, §6

[13] = tested on: U-937 human histocytic lymphoma; test: In vitro anti-tumor IC50 (MTT), U-937; format: cell-based; details: Homo sapiens, U-937; Table 4; read-out: IC50 (ug/ml) against tumor cell lines, U-937
Description: as §1, §2, §3, §4, §5, §6

[14] = A549, 50 μg/ml, Table 2 (repeated screening), read-out: inhibition rate, Results (%) A-549
[15] = SMMC-7721, 50 μg/ml, Table 2 (repeated screening), read-out: inhibition rate, Results (%) SMMC-7721
[16] = Bel-7402, 50 μg/ml, Table 2 (repeated screening), read-out: inhibition rate, Results (%) Bel-7402
[17] = HL-60, 50 μg/ml, Table 2 (repeated screening), read-out: inhibition rate, Results (%) HL-60
[18] = U-937, 50 μg/ml, Table 2 (repeated screening), read-out: inhibition rate, Results (%) U-937
[19] = 50 μg/ml, Table 2 (repeated screening), read-out: inhibition rate, Results (%) Hela
[20] = 50 μg/ml, Table 3 (repeated screening)

SMILES: C=C1CC2(OC(=O)C(C)C)OC3(CC2C(C)C)C(C)CCC13 (stereo not shown) [Compound 3, Curcumol isobutyrate]
- inhibition at 50 µg/mL ([1]; A549, 50 μg/ml, Table 1, read-out: inhibition rate, Results (%) A-549): 7.76%
- inhibition at 50 µg/mL [1, 14]: 10.3%
- Cytopathy and cell status, Sample (293 cells): Normal
- inhibition at 50 µg/mL ([2]; SMMC-7721, 50 μg/ml, Table 1, read-out: inhibition rate, Results (%) SMMC-7721): 8.02%
- inhibition at 50 µg/mL [2, 15]: 8.96%
- inhibition at 0.08 µg/mL ([3]; 0.08 μg/ml, read-out: Inhibition rate): 4.98%
- inhibition at 0.4 µg/mL ([3]; 0.40 μg/ml, read-out: Inhibition rate): 13.5%
- inhibition at 2 µg/mL ([3]; 2.0 μg/ml, read-out: Inhibition rate): 9.64%
- inhibition at 10 µg/mL ([3]; read-out: Inhibition rate): 12.1%
- IC50 ([3]; IC50, five 5× serial dilutions from 50 μg/ml): > 163 µM
- inhibition at 50 µg/mL ([3]; read-out: Inhibition rate, 50 μg/ml): 5.55%
- inhibition rate of HIV-1 reverse transcriptase ([4]; 120 ug/ml): 60%
- IC50 ([4]; IC50, initial concentration 1/150 of the stock solution): < 392 µM
- inhibition at 50 µg/mL ([5]; Bel-7402, 50 μg/ml, Table 1, read-out: inhibition rate, Results (%) Bel-7402): 14.4%
- inhibition at 50 µg/mL [5, 16]: 11%
- inhibition at 50 µg/mL ([6]; HL-60, 50 μg/ml, Table 1, read-out: inhibition rate, Results (%) HL-60): 3.21%
- inhibition at 50 µg/mL [6, 17]: 4.89%
- inhibition at 50 µg/mL ([7]; U-937, 50 μg/ml, Table 1, read-out: inhibition rate, Results (%) U-937): 91.7%
- inhibition at 50 µg/mL [7, 18]: 93%
- inhibition at 50 µg/mL ([8]; Table 1): 6.89%
- inhibition at 50 µg/mL ([8]; Table 2 (repeated screening)): 0.02%
- inhibition at 50 µg/mL ([9]; 50 μg/ml, Table 1, read-out: inhibition rate, Results (%) Hela): 69.2%
- inhibition at 50 µg/mL [9, 19]: 70.2%

SMILES: CC(C)C1CC23OC1(O)C/C(=C\Nc1ccc(O)cc1)C2CCC3C (stereo not shown) [Compound 5, Curcumol p-hydroxy aniline]
- inhibition rate, Results (%) A-549 [1, 20]: 91.23%
- inhibition at 50 µg/mL [1, 14]: 90%
- inhibition at 50 µg/mL ([1]; A549, read-out: inhibition rate, Results (%) A-549, 50 μg/ml, Table 1): 90.3%
- Cytopathy and cell status, Sample (293 cells): Good
- inhibition at 50 µg/mL [2, 15]: 86.9%
- inhibition at 50 µg/mL ([2]; SMMC-7721, read-out: inhibition rate, Results (%) SMMC-7721, 50 μg/ml, Table 1): 85%
- IC50 [10]: 0.4 µg/mL (≈ 1.16 µM)
- Inhibition rate ([3]; 0.08 μg/ml): 4.38
- Inhibition rate ([3]; 0.40 μg/ml): 9.00
- Inhibition rate ([3]; 2.0 μg/ml): 10.30
- inhibition at 10 µg/mL ([3]; read-out: Inhibition rate): 11.2%
- Inhibition rate ([3]; 50 μg/ml): 1.01
- IC50 ([3]; five 5× serial dilutions from 50 μg/ml, read-out: IC50): > 146 µM
- IC50 ([4]; initial concentration 200 μg/ml, read-out: IC50): > 582 µM
- inhibition rate, Results (%) Bel-7402 [5, 20]: 78.97%
- inhibition at 50 µg/mL [5, 16]: 81.5%
- inhibition at 50 µg/mL ([5]; Bel-7402, read-out: inhibition rate, Results (%) Bel-7402, 50 μg/ml, Table 1): 80.2%
- inhibition rate, Results (%) HL-60 [6, 20]: 95.14%
- inhibition at 50 µg/mL [6, 17]: 90.9%
- inhibition at 50 µg/mL ([6]; HL-60, read-out: inhibition rate, Results (%) HL-60, 50 μg/ml, Table 1): 91.3%
- IC50 [11]: 0.32 µg/mL (≈ 0.932 µM)
- IC50 [12]: 1 µg/mL (≈ 2.91 µM)
- IC50 [13]: 0.42 µg/mL (≈ 1.22 µM)
- inhibition rate, Results (%) U-937 [7, 20]: 91.03%
- inhibition at 50 µg/mL [7, 18]: 95.6%
- inhibition at 50 µg/mL ([7]; U-937, read-out: inhibition rate, Results (%) U-937, 50 μg/ml, Table 1): 94%
- inhibition rate, Results (%) LLC ([8]; Table 1): 3.21%
- inhibition rate, Results (%) LLC ([8]; Table 3 (repeated screening)): 86.54%
- inhibition at 50 µg/mL ([8]; Table 2 (repeated screening)): 85.1%
- inhibition rate, Results (%) Hela [9, 20]: 94.55%
- inhibition at 50 µg/mL [9, 19]: 92.3%
- inhibition at 50 µg/mL ([9]; read-out: inhibition rate, Results (%) Hela, 50 μg/ml, Table 1): 94.4%
